Reference: ChEMBL document CHEMBL3272260, “Metabolic and photochemical hydroxylation of 5-nitro-2-furancarboxaldehyde derivatives” (J Med Chem, 1976)

How the values were obtained:
[1] = Half life of the compound under atmospheric pressure condition; type: physicochemical
[2] = Half life of the compound under in-vacuo condition; type: physicochemical
[3] = Chemical stability of the compound; type: physicochemical
[4] = Drug metabolism in rat urine treated with nitrofurantoin at 100 mg/kg, po measured up to 6 hrs by NMR-spectroscopic analysis; type: ADME, organism-based; design: dose 100 mg/kg, route oral; settings: in vivo
[5] = Drug metabolism in rat urine treated with nitrofurantoin at 100 mg/kg, po measured up to 6 hrs by UV-spectroscopic analysis; type: ADME, organism-based; design: dose 100 mg/kg, route oral; settings: in vivo
[6] = Drug metabolism in rat urine treated with nitrofurantoin at 100 mg/kg, po measured up to 6 hrs by IR-spectroscopic analysis; type: ADME, organism-based; design: dose 100 mg/kg, route oral; settings: in vivo
[7] = Half life of the compound in 0.1% aqueous solution; type: physicochemical
[8] = Dissociation constant, pKa of the compound by potentiometric titration analysis; type: physicochemical

A half-life [1] of 120 h and a half-life [2] greater than 624 h were found for `O.O=C1OCCN1/N=C/c1cc(O)c([N+](=O)[O-])o1` in this work.

In the case of `O=C1C=C(/C=N/N2CCOC2=O)OC1=[N+]([O-])[O-].[K+]`, the Stability [3] is reported as “Stable”.

With `O.O=C1CN(/N=C/C2=CC(=O)C(=[N+]([O-])[O-])O2)C(=O)N1.[K+]` the Drug metabolism [4] was “metabolite_detected”, the Drug metabolism [5] was “metabolite_detected” and the Drug metabolism [6] was “metabolite_detected”. For the same compound, the Stability [3] was “Stable”.

A half-life at 0.1 % [7] of 48 h and a pKa [8] of 2.7 were found for `O.O.O=C1OCCN1/N=C/c1cc(O)c([N+](=O)[O-])o1` in this work.
